Laboratory results: patent US11964978B2, “Modulators of STING (stimulator of interferon genes)” (PFIZER INC., priority 2021, dated 2024)

Key:
[1] = system: phosphorylation of IRF3 in THP-1 cells (STING activation); test: Phosphorylation of IRF3: THP-1 cell ELISA; assay type: cell-based; settings: Homo sapiens, 3 hours incubation, read-out: THP-1 CELL P-IRF3 EC50
Description: Phosphorylation of IRF3: THP-1 cell ELISA
STING activation results in recruitment of TBK1 and phosphorylation of IRF3 transcription factor before induction of type I interferons. THP-1 cells (InvivoGen) were grown in RPMI media plus 2 mM L-glutamine, 10% fetal bovine serum, and 0.5% Pen-Strep. 10^4 cells were seeded in 96-well plates and incubated overnight […]. Compounds serial diluted compounds in media (final 0.5% DMSO) were added to the cells and incubated for an additional 3 hours. After incubation, the plates were centrifuged at 2000 rpm for 5 min. The cells were then lysed in 100 μl RIPA buffer and vortexed for 30 minutes at room temperature. 25 μl of lysate was then transferred to clear polystyrene High Bind plates that had been previously coated with mouse anti-human IRF-3 capture antibody (BD Pharmigen), and allowed to incubate at 4° C. for 16 hours. The plates were then washed and incubated with rabbit anti-phospho-IRF3 detection antibody (Cell Signaling Technologies) for 1.5 hours at room temperature. Finally, an HRP-linked secondary antibody (Cell Signaling Technologies) was added for 30 min before the Glo Substrate Reagent (R&D Systems) was used generate the luminescent signal. The signal was measured using a Perkin-Elmer Envision microplate reader. Data were normalized to “% effect” with a positive control STING agonist that was known to maximize the phosphorylated IRF3 signal and the negative control was DMSO.

R232-STING = R232-STING (Homo sapiens (Human), UniProt Q86WV6, H232R); settings: read-out: R232-STING SPA-IC50 Ki; STING residues 155-341, 100 nM 3H-cGAMP; KI from IC50 with Cheng-Prusoff equation
[2] = system: THP-1 Lucia ISG cells (IRF-inducible Lucia luciferase reporter); test: Interferon-β induction: THP-1 ISG reporter cell line; assay type: cell-based; settings: THP1-Lucia ISG, 24 hours incubation, read-out: THP-1 Lucia ISG Cells IFN-β EC50
Description: Interferon-β Induction: THP-1 ISG Reporter Cell Line
THP-1 Lucia™ ISG cells (InvivoGen) express the secreted luciferase “Lucia” reporter gene under the control of an IRF-inducible composite promotor comprised of five interferon response elements. THP-1 Lucia™ ISG cells were grown in RPMI media plus 2 mM L-glutamine, 10% fetal bovine serum, and 0.5% Pen-Strep. Hygromycin B and Zeocin were present to maintain stable transfection. 10^4 cells were seeded in 96-well plates and incubated overnight 37° C., 5% CO2. 50 μL of serial diluted compounds in media (final 0.5% DMSO) was and incubated for an additional 24 hours. After incubation, the plates were centrifuged at 2000 rpm for 10 min. 50 μl of cell culture supernatant of each well was transferred to a white, opaque 96-well plate. One pouch of QUANTI-Luc™ (InvivoGen) powder was prepared in 25 mL of endotoxin-free water and 100 μL of prepared warm QUANTI-Luc solution were added to each well containing the supernatant. The luminescence signal was measured using a Perkin-Elmer Envision microplate reader. Data were normalized to “% effect” with a positive control STING agonist that was known to maximize the luciferase signal and the negative control DMSO.

Sequence of R232-STING (Q86WV6 155-341 H232R): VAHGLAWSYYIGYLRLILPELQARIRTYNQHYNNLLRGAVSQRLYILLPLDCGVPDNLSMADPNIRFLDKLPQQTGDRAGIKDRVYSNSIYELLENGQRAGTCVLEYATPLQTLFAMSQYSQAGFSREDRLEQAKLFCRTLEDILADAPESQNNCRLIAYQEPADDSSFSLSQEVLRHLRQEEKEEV

EC50 [1]	Ki (R232-STING)	EC50 [2]	Structure (SMILES)
680 nM	12.8 nM	850 nM	COCCCn1nc(C)cc1-c1cn(C)c(-c2nc(C(N)=O)cc3c2cnn3CF)n1 [AIN03, 1-(fluoromethyl)-4-{4-[1-(3-methoxypropyl)-3-methyl-1H-pyrazol-5-yl]-1-methyl-1H-imidazol-2-yl}-1H-pyrazolo[4,3-c]pyridine-6-carboxamide]
670 nM	10.7 nM	820 nM	CCn1nc(C)cc1-c1cn(C)c(-c2nc(C(N)=O)cc3c2cnn3C)n1 [Example AIA01, 4-[4-(1-ethyl-3-methyl-1H-pyrazol-5-yl)-1-methyl-1H-imidazol-2-yl]-1-methyl-1H-pyrazolo[4,3-c]pyridine-6-carboxamide]
> 10000 nM	135 nM	8960 nM	Cc1cc(-c2cn(C)c(-c3nc(C(N)=O)cc4c3cnn4C)n2)n(C[C@@H]2CCO2)n1 (single isomer, unassigned) [AIM02]
500 nM	9.8 nM	540 nM	CCCn1nc(C)cc1-c1cn(C)c(-c2nc(C(N)=O)cc3c2cnn3C)n1 [Example AIF01, 1-methyl-4-[1-methyl-4-(3-methyl-1-propyl-1H-pyrazol-5-yl)-1H-imidazol-2-yl]-1H-pyrazolo[4,3-c]pyridine-6-carboxamide]
2240 nM	62.6 nM	2260 nM	Cc1cc(-c2cn(C)c(-c3nc(C(N)=O)cc4c3cnn4C)n2)n(CCC#N)n1 [Example AIQ01, 4-{4-[1-(2-cyanoethyl)-3-methyl-1H-pyrazol-5-yl]-1-methyl-1H-imidazol-2-yl}-1-methyl-1H-pyrazolo[4,3-c]pyridine-6-carboxamide]
1260 nM	33.8 nM	1310 nM	CCn1nc(C)cc1-c1cn(CC(F)F)c(-c2nc(C(N)=O)cc3c2cnn3C)n1 [AIA04, 4-[1-(2,2-difluoroethyl)-4-(1-ethyl-3-methyl-1H-pyrazol-5-yl)-1H-imidazol-2-yl]-1-methyl-1H-pyrazolo[4,3-c]pyridine-6-carboxamide]
–	> 990 nM	–	CCn1nc(C)cc1-c1cn(Cc2ccccc2)c(-c2nc(C(N)=O)cc3c2cnn3C)n1 [AIP03]
1350 nM	46.6 nM	1830 nM	Cc1cc(-c2cn(C)c(-c3nc(C(N)=O)cc4c3cnn4C)n2)n(CCCC#N)n1 [AIF15, 4-{4-[1-(3-cyanopropyl)-3-methyl-1H-pyrazol-5-yl]-1-methyl-1H-imidazol-2-yl}-1-methyl-1H-pyrazolo[4,3-c]pyridine-6-carboxamide]
–	> 990 nM	–	CCn1nc(C(F)(F)F)cc1-c1cn(C)c(-c2nc(C(N)=O)cc3c2cnn3C)n1 [AIF09, 4-{4-[1-ethyl-3-(trifluoromethyl)-1H-pyrazol-5-yl]-1-methyl-1H-imidazol-2-yl}-1-methyl-1H-pyrazolo[4,3-c]pyridine-6-carboxamide]
> 10000 nM	113 nM	> 10000 nM	CCn1nc(C)cc1-c1cn(C)c(-c2nc(C(N)=O)cc3c2ccn3C)n1 [AIC02, 4-[4-(1-ethyl-3-methyl-1H-pyrazol-5-yl)-1-methyl-1H-imidazol-2-yl]-1-methyl-1H-pyrrolo[3,2-c]pyridine-6-carboxamide]
330 nM	15.2 nM	430 nM	CCn1cc(-c2cc(C)nn2CCCOC)nc1-c1nc(C(N)=O)cc2c1cnn2C [Example AIK01, 4-{1-ethyl-4-[1-(3-methoxypropyl)-3-methyl-1H-pyrazol-5-yl]-1H-imidazol-2-yl}-1-methyl-1H-pyrazolo[4,3-c]pyridine-6-carboxamide]
10 nM	0.3 nM	< 10 nM	CCCn1nc(C)c(O)c1-c1cn(C)c(-c2nc(C(N)=O)cc3c2cnn3C)n1 [AIF11, 4-[4-(4-hydroxy-3-methyl-1-propyl-1H-pyrazol-5-yl)-1-methyl-1H-imidazol-2-yl]-1-methyl-1H-pyrazolo[4,3-c]pyridine-6-carboxamide]
–	> 990 nM	–	Cc1cc(-c2cn(C)c(-c3nc(C(N)=O)cc4c3cnn4C)n2)n(CCC(F)(F)F)n1 [AIF05, 1-methyl-4-{1-methyl-4-[3-methyl-1-(3,3,3-trifluoropropyl)-1H-pyrazol-5-yl]-1H-imidazol-2-yl}-1H-pyrazolo[4,3-c]pyridine-6-carboxamide]
70 nM	1.3 nM	30 nM	COCCCn1nc(C)c(O)c1-c1cn(C)c(-c2nc(C(N)=O)cc3c2cnn3C)n1 [AIF10, 4-{4-[4-hydroxy-1-(3-methoxypropyl)-3-methyl-1H-pyrazol-5-yl]-1-methyl-1H-imidazol-2-yl}-1-methyl-1H-pyrazolo[4,3-c]pyridine-6-carboxamide]
310 nM	10.7 nM	310 nM	Cc1cc(-c2cn(C)c(-c3nc(C(N)=O)cc4c3cnn4C)n2)n(CCCCCO)n1 [AIE03, 4-{4-[1-(5-hydroxypentyl)-3-methyl-1H-pyrazol-5-yl]-1-methyl-1H-imidazol-2-yl}-1-methyl-1H-pyrazolo[4,3-c]pyridine-6-carboxamide]
–	352 nM	–	CCc1nn(C)cc1-c1cn(C)c(-c2nc(C(N)=O)cc3c2cnn3C)n1 [AIH01, 4-[4-(3-ethyl-1-methyl-1H-pyrazol-4-yl)-1-methyl-1H-imidazol-2-yl]-1-methyl-1H-pyrazolo[4,3-c]pyridine-6-carboxamide]
650 nM	7.8 nM	700 nM	CCn1ncc2c(-c3nc(-c4cc(C)nn4CCCOC)cn3C)nc(C(N)=O)cc21 [AIC03, 1-ethyl-4-{4-[1-(3-methoxypropyl)-3-methyl-1H-pyrazol-5-yl]-1-methyl-1H-imidazol-2-yl}-1H-pyrazolo[4,3-c]pyridine-6-carboxamide]
200 nM	12.7 nM	270 nM	CCn1cc(-c2cc(C)nn2CCCO)nc1-c1nc(C(N)=O)cc2c1cnn2C [AIE02, 4-{1-ethyl-4-[1-(3-hydroxypropyl)-3-methyl-1H-pyrazol-5-yl]-1H-imidazol-2-yl}-1-methyl-1H-pyrazolo[4,3-c]pyridine-6-carboxamide]
800 nM	18 nM	770 nM	CCn1cc(-c2cc(C)nn2CC)nc1-c1nc(C(N)=O)cc2c1cnn2C [AIA02, 4-[1-ethyl-4-(1-ethyl-3-methyl-1H-pyrazol-5-yl)-1H-imidazol-2-yl]-1-methyl-1H-pyrazolo[4,3-c]pyridine-6-carboxamide]
2120 nM	23.6 nM	2380 nM	Cc1cc(-c2cn(C)c(-c3nc(C(N)=O)cc4c3cnn4C)n2)n(CC2CC2)n1 [AIF04, 4-{4-[1-(cyclopropylmethyl)-3-methyl-1H-pyrazol-5-yl]-1-methyl-1H-imidazol-2-yl}-1-methyl-1H-pyrazolo[4,3-c]pyridine-6-carboxamide]
990 nM	20.9 nM	1200 nM	COCCCn1nc(C)cc1-c1cn(C)c(-c2nc(C(N)=O)cc3c2cnn3C(F)F)n1 [AIN02, 1-(difluoromethyl)-4-{4-[1-(3-methoxypropyl)-3-methyl-1H-pyrazol-5-yl]-1-methyl-1H-imidazol-2-yl}-1H-pyrazolo[4,3-c]pyridine-6-carboxamide]
> 10000 nM	151 nM	> 10000 nM	Cn1cc(-c2ccnn2C)nc1-c1nc(C(N)=O)cc2c1cnn2C [AIH04, 1-methyl-4-[1-methyl-4-(1-methyl-1H-pyrazol-5-yl)-1H-imidazol-2-yl]-1H-pyrazolo[4,3-c]pyridine-6-carboxamide]
–	257 nM	–	CCn1nc(C)cc1-c1cn(C2CC2)c(-c2nc(C(N)=O)cc3c2cnn3C)n1 [Example AIB01, 4-[1-cyclopropyl-4-(1-ethyl-3-methyl-1H-pyrazol-5-yl)-1H-imidazol-2-yl]-1-methyl-1H-pyrazolo[4,3-c]pyridine-6-carboxamide]
–	> 990 nM	–	CCn1nc(C)c(Cl)c1-c1cn(C)c(-c2nc(C(N)=O)cc3c2cnn3C)n1 [AIF08, 4-[4-(4-chloro-1-ethyl-3-methyl-1H-pyrazol-5-yl)-1-methyl-1H-imidazol-2-yl]-1-methyl-1H-pyrazolo[4,3-c]pyridine-6-carboxamide]
